Data as given in the NIST ThermoML archive (doi:10.1016/j.jct.2018.03.007).

Assay: xn = mol fraction of the nth substance listed
Conditions: 100 kPa, Liquid; for speed of sound: Linear variable-path acoustic interferometer; for mass density: Vibrating tube method

CCn1cc[n+](C)c1.O=S(=O)([O-])O [1-ethyl-3-methylimidazolium hydrogen sulfate] + CCO
speed of sound [m/s], Frequency=3 MHz
Conditions | x1 = 0.0281 | x1 = 0.0878 | x1 = 0.1779 | x1 = 0.3378 | x1 = 0.4731 | x1 = 0.577 | x1 = 0.6689 | x1 = 0.7759 | x1 = 0.8797 | x1 = 1
298.15 K | 1190.1 | 1289.8 | 1416.2 | 1577.8 | 1698.6 | 1780.2 | 1836.4 | 1893.6 | 1943.4 | 1982.8
303.15 K | 1170.6 | 1267.3 | 1393.3 | 1558.4 | 1675.8 | 1755.7 | 1816.2 | 1871.9 | 1922.1 | 1962.9
308.15 K | 1152.1 | 1245.3 | 1370.9 | 1538.6 | 1653 | 1731.4 | 1796 | 1850.2 | 1900.8 | 1943.1
313.15 K | 1132.9 | 1222.8 | 1348 | 1516.6 | 1630.3 | 1707.9 | 1773.8 | 1828.5 | 1879.5 | 1923.2

mass density [kg/m3]
Conditions | x1 = 0.0281 | x1 = 0.0878 | x1 = 0.1779 | x1 = 0.3378 | x1 = 0.4731 | x1 = 0.577 | x1 = 0.6689 | x1 = 0.7759 | x1 = 0.8797 | x1 = 1
298.15 K | 829.67 | 910.66 | 1007.45 | 1129.95 | 1203.92 | 1248.74 | 1281.87 | 1314.38 | 1340.71 | 1365.75
303.15 K | 825.5 | 906.7 | 1003.74 | 1126.52 | 1200.65 | 1245.56 | 1278.69 | 1311.18 | 1337.51 | 1362.62
308.15 K | 821.28 | 902.7 | 999.98 | 1123.06 | 1197.38 | 1242.38 | 1275.52 | 1308 | 1334.34 | 1359.53
313.15 K | 817 | 898.63 | 996.14 | 1119.54 | 1194.05 | 1239.13 | 1272.31 | 1304.78 | 1331.14 | 1356.41

CCn1cc[n+](C)c1.O=S(=O)([O-])O [1-ethyl-3-methylimidazolium hydrogen sulfate] + C[S+](C)[O-]
speed of sound [m/s], Frequency=2 MHz
Conditions | x1 = 0.0494 | x1 = 0.1349 | x1 = 0.2377 | x1 = 0.3638 | x1 = 0.5219 | x1 = 0.6517 | x1 = 0.7261 | x1 = 0.8081 | x1 = 0.9182 | x1 = 1
298.15 K | 1530.5 | 1600.5 | 1672.7 | 1746.9 | 1823.3 | 1875.5 | 1902 | 1928.7 | 1961 | 1982.8
303.15 K | 1513.4 | 1582.9 | 1654.4 | 1728.2 | 1804.2 | 1856.1 | 1882.4 | 1909 | 1941.2 | 1962.9
308.15 K | 1495.9 | 1564.8 | 1635.9 | 1709.3 | 1784.9 | 1836.6 | 1862.8 | 1889.3 | 1921.5 | 1943.1
313.15 K | 1478.6 | 1547 | 1617.6 | 1690.5 | 1765.7 | 1817.1 | 1843.2 | 1869.6 | 1901.6 | 1923.2

mass density [kg/m3]
Conditions | x1 = 0.0494 | x1 = 0.1349 | x1 = 0.2377 | x1 = 0.3638 | x1 = 0.5219 | x1 = 0.6517 | x1 = 0.7261 | x1 = 0.8081 | x1 = 0.9182 | x1 = 1
298.15 K | 1128.82 | 1175.73 | 1219.12 | 1259.43 | 1297.19 | 1320.97 | 1332.42 | 1343.71 | 1357.03 | 1365.75
303.15 K | 1124.11 | 1171.37 | 1214.91 | 1255.51 | 1293.61 | 1317.58 | 1329.14 | 1340.51 | 1353.89 | 1362.62
308.15 K | 1119.4 | 1166.99 | 1210.85 | 1251.66 | 1290.03 | 1314.21 | 1325.9 | 1337.32 | 1350.73 | 1359.53
313.15 K | 1114.68 | 1162.54 | 1206.72 | 1247.85 | 1286.51 | 1310.9 | 1322.64 | 1334.1 | 1347.61 | 1356.41
